According to patent US12593844B2, “Method and compounds to induce plant tolerance against arthropod pests” (Universiteit Gent, priority 2018, dated 2026):
Read-outs that look alike come from different tables or passages of the source.

Columns and labels:
[1] = test system: lignification in the Casparian strip; conditions: five day old seedlings grown in vitro, continuous exposure to 10 μM; Van de Wouwer et al., 2016; cited from earlier work
[2] = test system: Arabidopsis thaliana seedlings; conditions: continuous exposure of seedlings; Steenackers et al. 2016; read-out: IC50-root (dose required to reduce primary root elongation by 50%); cited from earlier work
[3] = test system: C4H gene; test: C4H gene expression in root system of rice plants after foliar treatment; type: in vivo, Oryza sativa cv. Bomba; conditions: fourteen-day old rice plants, foliar treatment 24 and 3 hours prior to harvest, 100 μM
Source text: Techniques for measuring and determining the (effect on) activity of C4H are well known to the one of ordinary skill in the art. Useful methods to determine inhibition of C4H activity are (incorporated by reference): • Measurement of the conversion efficiency of trans-cinnamic acid labeled with ^13C or ^14C in the presence of a potential C4H inhibitor in plant cell cultures or in yeast microsomes in which the CYP73A1 is expressed (as described in Schoch et al. 2002; Van de Wouwer et al. 2016; Schalk et al. 1998). Representative inhibition kinetics values obtained in cell suspensions for both competitive and irreversible C4H inhibitors can be found in Table 1 in Schoch et al., 2002 (incorporated by reference). • Inhibition of the C4H enzyme increases the concentration of free trans-cinnamic acid, which is rapidly conjugated in planta. The accumulation of trans-cinnamic acid amino acid conjugates, which can be quantified using HPLC-MS, can be used as a proxy measure for C4H inhibition in planta. This approach is outlined in Steenackers et al. 2016. […] Representative values for the increase in the quantity of trans-cinnamic acid conjugates are found in Supplemental Figure S2 in Steenackers et al. 2016 (incorporated by reference). • Inhibition of the C4H enzyme causes a compensatory upregulation of the C4H gene, as shown in Example 20. […]

[4] = test system: Tetranychus urticae; test: Acute (direct) toxicity to spider mites sprayed on leaf discs; type: in vivo; conditions: 300 μM spray, after 24 h
Description: Tetranychus urticae—Spider mites of a laboratory reference strain were collected and placed on arenas consisting of a square bean leaf disc, placed on wet cotton wool and lined with paper tissue. Each arena received 25 to 30 adult female mites. The arenas were then sprayed in a custom-build spray tower with either 300 μM PA or control solution, six replicates each. The mites were incubated at 25° C., 18:6 L:D. Mortality was scored after 24 h. Mites were scored as either drowned (in water barrier), alive or dead (not moving its own body length within 10 seconds after prodding with a tiny brush).
T. urticae—Direct toxicity of PA to spider mites was evaluated by spraying mites on leaf disks with either 300 μM PA or control solution.

[5] = test system: Steneotarsonemus spinki; test: Greenhouse experiment: rice yield and fertility under panicle rice mite stress; type: in vivo
Description: Rice seeds (cv. Kitaake) were sterilized and germinated on wet paper in the dark at 30° C. Seedlings were transferred to sterilized potting soil and placed in a climate-controlled compartment at the Ghent University greenhouse complex (Melle, Belgium). The compartment was known to host a natural mite infestation; the causal mite had previously been identified as Steneotarsonemus spinki by professor Thomas van Leeuwen of the agrozoology lab at Ghent University. Pots were arranged in a completely randomized manner in the same tray.
To determine the effects of C4H inhibition on yield and fertility in the presence of mites, rice (Oryza sativa cv. Kitaake) was grown in a greenhouse until maturity and treated with a control or 300 μM PA foliar spray at bi-weekly intervals. This greenhouse is naturally infested with the panicle rice mite (Steneotarsonemus spinki).

[6] = test system: Arabidopsis thaliana seedlings; test: Primary root elongation of Arabidopsis thaliana seedlings (IC50-root); type: in vivo; conditions: continuous exposure of seedlings, unpublished data, read-out: IC50-root (dose required to reduce primary root elongation by 50%)
[7] = test system: Rhopalosiphum padi; test: Bird cherry-oat aphid reproduction on wheat, first experiment; type: in vivo; conditions: 300 μM foliar spray, ten days
Description: (§1) Winter wheat (cv. Sahara) seeds were obtained from Aveve Agrarisch (Landen, Belgium). Seeds were washed with a 10% ethanol solution to remove residual fungicide traces and then germinated on wet paper at room temperature. Seedlings were transferred to potting soil and placed in a growth chamber at 22° C. with 16 hours per day of fluorescent light.
(§2) A 100 mM piperonylic acid stock was prepared by dissolving piperonylic acid (Sigma-Aldrich, Saint-Louis, USA) in DMSO (Duchefa Biochemie, Haarlem, the Netherlands). Before use, this stock solution was diluted with distilled water to a concentration of 300 μM and mixed with 0.1 v/v % Tween 20. Working solutions of 1000 μM PA (Aculops experiment) were prepared in a similar manner from a 300 mM stock solution. The resulting spraying solution was applied to plants until run-off using an atomizer. As a control, a solution consisting of an equivalent amount of DMSO and Tween 20 was used in the same manner. […]
(§3) In the first experiment, R. padi aphids were reared on barley plants grown at room temperature. […] Twenty-four hours later, the number of remaining adults on each pot was recorded. Ten days later, the number of aphids in each pot was counted. The reproductive factor was calculated by dividing the number of aphids counted after ten days by the number of remaining adult females twenty-four hours after inoculation.

[8] = test system: Tetranychus urticae; test: Two-spotted spider mite reproduction on tomato after foliar spray; type: in vivo; conditions: 300 μM foliar spray, ten days after inoculation with ten females
Description: Tomato (cv. Moneymaker) seeds were obtained from Vreeken's Zaden (Dordrecht, the Netherlands). Seeds were germinated on potting soil at 22° C.; seedlings were then transferred to individual pots filled with potting soil and placed in a growth chamber at 24° C. with 16 hours per day of fluorescent light.
as §2, with “atomizer.” for “atomizer. As a control, a solution consisting of an equivalent amount of DMSO and Tween 20 was used in the same manner.”
Tomato plants in the early four-leaf stage were inoculated with T. urticae by placing ten adult females on the second leaf of each plant. […] All moving mites present on the leaf were counted (regardless of life stage).
Images of tomato leaves damaged by S. exigua were analyzed using the ImageJ software. For T. urticae damage, the total area of the second leaf of each plant was quantified using the polygon selection tool. Then, the total area of chlorotic patches on the leaf was measured in the same manner and the ratio of both values was calculated to obtain the percentage of chlorotic leaf.

[9] = test system: Frankliniella occidentalis; test: Western flower thrips progeny on pepper plants; type: in vivo; conditions: 300 μM, progeny counted three days after four-day infestation with ten adults (control 19.0±1.84)
Description: Pepper seedlings (cv. Cayenne long slim) were transferred to individual pots with potting soil two weeks after sowing. Plants were maintained in a growth room (25° C., 16:8 L:D) for two additional weeks. Plants were removed from the soil and placed with their roots in water (to accommodate the Plexiglas cage system) at the onset of thrips infestation (4 weeks old).
as §2, with “manner. Plants were sprayed twice, one and eight days before inoculation.” for “manner.”
F. occidentalis was reared on bean pods in an incubator at 28° C.; 70% RH and 16:8 L:D. For inoculation of the PA-treated (300 μM) or Control plants, 10 females (two days old since turning adult) were transferred with a fine brush to a pepper plant inside a Plexiglas cage. After four days, all females were removed, while their progeny was counted three days later.

[10] = test system: Spodoptera exigua; test: Acute (direct) toxicity to Spodoptera exigua L3 larvae; type: in vivo; conditions: 300 μM, out of 30 larvae (control 29)
Description: Spodoptera exigua—S. exigua was reared on an artificial diet in a 24° C. incubator. Recently molted L3 larvae were placed in petri dishes containing tissue paper and 2 g of artificial feed pellets. Both tissue paper and pellets were wetted with 10 ml of either distilled water or distilled water containing 300 μM PA. Twenty-four and seventy-two hours later, the number of surviving caterpillars was counted. A caterpillar was considered alive if it was either actively moving, or if it moved when gently prodded. It was also recorded whether a caterpillar was feeding (present on a feed pellet) to measure whether PA-treated feed pellets were repellent to the caterpillar.
S. exigua—Direct toxicity of piperonylic acid (PA) was determined using the protocol outlined in the materials and methods section. Briefly, 30 recently molted L3 larvae were placed per petri dish containing tissue paper and food pellets that had been wetted with either a 300 μM piperonylic acid solution or a water control.

[11] = test system: Aculops lycopersici; test: Tomato russet mite population growth on tomato; type: in vivo; conditions: ten days after inoculation with 30 mites
Description: (§4) A 100 mM piperonylic acid stock was prepared by dissolving piperonylic acid (Sigma-Aldrich, Saint-Louis, USA) in DMSO (Duchefa Biochemie, Haarlem, the Netherlands). Before use, this stock solution was diluted with distilled water to a concentration of 300 μM and mixed with 0.1 v/v % Tween 20. Working solutions of 1000 μM PA (Aculops experiment) were prepared in a similar manner from a 300 mM stock solution. The resulting spraying solution was applied to plants until run-off using an atomizer. As a control, a solution consisting of an equivalent amount of DMSO and Tween 20 was used in the same manner. Plants were sprayed twice, one and eight days before inoculation. The tomato plants used in the spider mite experiment were sprayed a final time five days after inoculation, but only on the non-inoculated leaves to avoid direct effects of the spray on the mites.
A. lycopersici was reared on tomato plants in an incubator at 27° C.; 50% RH and 16:8 L:D. For inoculation of the PA-treated (300 μM or 1000 μM) or Control plants, 30 mites were transferred with a fine brush to a small leaf disk (1 cm), which was then placed on top of the plants. The mites were allowed the reproduce on the tomato plants during ten days, after which the total number of mites was compared.

[12] = test system: Rhopalosiphum padi; test: Bird cherry-oat aphid reproduction on wheat, second experiment (synchronized aphids); type: in vivo; conditions: 300 μM foliar spray, ten days
Description: as §1, §2
as §3, with “second” for “first”

[13] = test system: Aculops lycopersici; test: Acute (direct) toxicity to russet mites sprayed on leaf disks; type: in vivo; conditions: 300 μM spray, after 24 h
Description: Aculops lycopersici—Tomato russet mites were collected from a lab culture and transferred to a tomato leaf disk placed on agar. Each disk received 25 to 30 adult mites. The disks with mites were then sprayed in a custom-build spray tower with either 300 μM PA or control solution, six replicates each. The russet mites were incubated at 25° C., 18:6 L:D. Mortality was scored after 24 h. Mites were scored as either lost (in agar barrier), alive or dead.
A. lycopersici—Direct toxicity of PA to russet mites was evaluated by spraying mites on leaf disks with either 300 μM PA or control solution.

[14] = test system: Bemisia tabaci; test: Tobacco whitefly egg development on cotton after foliar spray; type: in vivo; conditions: 300 μM foliar spray
Description: Cotton seeds were germinated in individual pots filled with potting soil and placed in a greenhouse with supplemental lighting (16 hours of light per day).
as §4
B. tabaci (biotype Q) was reared on cotton plants under controlled laboratory conditions. Approximately sixty mixed-sex adults were collected and placed in ventilated vials attached to the leaves of two-week old cotton plants. After being allowed to oviposit for 24 hours, the adults were removed. Eight days after oviposition, leaves were detached and the number of unhatched eggs, crawlers and nymphs per plant was recorded.

[15] = rice, 300 μM foliar spray bi-weekly, three months after emergence

O=C(O)c1ccc(I)cc1 [4-IBA, 4-iodobenzoic acid]
increase of the number of non-lignified endodermal cells in the Casparian strip region [1]: 57%

O=C(O)C=Cc1ccc2c(c1)OCO2 [MDCA, 3,4-methylenedioxycinnamic acid]
IC50 [2]: 5.07 µM
increase of the number of non-lignified endodermal cells in the Casparian strip region [1]: 104%
increase of C4H expression in the root system [3]: three-fold

O=C(O)c1ccc2c(c1)OCO2 [PA, Piperonylic acid]
spider mite mortality vs control [4]: No significant difference
change in number of seeds vs control ([5]; rice cv. Kitaake, 300 μM foliar spray at bi-weekly intervals, three months after emergence): +104%
empty panicles vs control [5, 15]: fewer empty panicles
tillers developed vs control [5, 15]: more tillers
change in seed germination rate vs control ([5]; seeds from treated plants, seven days on wet paper): +45%
IC50 [6]: 40 µM
change in reproductive factor of R. padi vs control [7]: −32%
change in number of mites present on the leaf vs control [8]: −49%
change in percentage of visibly chlorotic leaf area vs control [8]: −62%
increase of the number of non-lignified endodermal cells in the Casparian strip region [1]: 134%
number of thrips larvae recovered (mean±SE) [9]: 11.33±1.82 larvae
increase of C4H expression in the root system [3]: ten-fold
L3 larvae alive ([10]; after seventy-two hours): 27
L3 larvae alive ([10]; after twenty-four hours): 28
reduction of russet mite population growth vs control ([11]; 300 μM, not significant (p=0.052)): about 50%
reduction of russet mite population growth vs control ([11]; 1000 μM, not significant (p=0.089)): about 50%
change in reproductive factor of R. padi vs control [12]: 29%
russet mite mortality vs control [13]: No significant difference
number of eggs deposited on cotton plants ([14]; 24 hours oviposition): did not affect
eggs failed to hatch ([14]; eight days after oviposition (control 3%)): 20%
eggs developed into nymphs ([14]; eight days after oviposition (control 16%)): 9%
